We go through 1 compound from US12427192B2, “Water soluble adjuvant and composition containing same” (Sumitomo Pharma Co., Ltd., priority 2019, dated 2025).

For test [1], the system named is MCA-A24/Kb-WT1 tumor cells. The test can be described thus: Test 5: enhancement of in vivo suppressive effect of vaccine on tumor growth. The note with it: 27 days after tumor transplantation; vaccine 7 days before and 7 days after transplantation; compared with vehicle (group a); six mice per group; 100 ng Example 1 per body in group c; FIG. 2. Also noted: species or system mouse. As to the method:
Effect for Enhancing the In Vivo Suppressive Effect of Vaccine for Growth of Tumor Vaccine
A suspension of 3-methylcholanthrene in corn oil was administered to a HLA-A*24:02 transgenic mouse intradermally at the ventral region. From the tumor generated at the administration site, HLA-A*2402/Kb-expressing tumor cells were obtained. Cell lines established by stably expressing WT1 antigen peptide (SEQ ID No. 2) in the cells (herein, also referred to as MCA-A24/Kb-WT1 tumor cells) were suspended in Hanks' Balanced Salt Solution and intradermally transplanted to the ventral region of HLA-A*24:02 transgenic mouse (5×10^5 cells per mouse). The mice made to receive a vehicle (Group a), a vaccine (Group b), or a vaccine containing the compound prepared in Example 1 (Group c) were classified. Six mice per group were used. Seven days before the tumor transplantation and seven days after the tumor transplantation, for the mice of Group a, a composition comprising water for injection was emulsified with an equal volume of Montanide ISA 51 VG and the emulsion was administered intradermally at the tail base area (0.1 mL per administration per mouse). […] The tumor diameter was measured 27 days after the tumor transplantation and the tumor volume was calculated.

The subject of test [2] is HLA-A*02:01 transgenic mouse. The test is described as follows: Test 15: in vivo adjuvant activity, cocktail vaccine j (hydrogel formulation), IFNγ ELISPOT. The note with it: added to cocktail vaccine j (hydrogel formulation); 0.4 nmol per body, twice; FIG. 17 and 18. As to the method:
(§1) Evaluation of In Vivo Adjuvant Activity in HLA-A*02:01 Transgenic Mouse
The in vivo adjuvant activity of the compound of Example 1 was evaluated in the following procedure. To a vaccine (hydrogel formulation) comprising Compound of formula 4 prepared in Reference example 8 and Peptide SEQ ID No. 3 prepared in Reference example 3 (hereinafter, referred to as “cocktail vaccine j”) was added the compound prepared in Example 1 to prepare a vaccine. The vaccine was administered to a HLA-A*02:01 transgenic mouse, and the adjuvant activity of the vaccine was evaluated by the method of testing antigen-specific CTL induction.
For example, the above hydrogel formulation was prepared as follows. Compound of formula 4, Peptide SEQ ID No. 3, and polyoxyethylene(196)polyoxypropylene(67) glycol were mixed with pH 2.5 buffer (10 mM tartaric acid) to adjust each concentration to 1.5 mg/mL, 1.125 mg/mL, and 200 mg/mL, respectively. The mixture was […] to give a hydrogel formulation, cocktail vaccine j. The amount of the preparation was adjusted as appropriate.
Cocktail vaccine j was injected to mice intradermally at the tail base area in an amount for administering 300 μg of Compound of formula 4 per body and 225 μg of Peptide SEQ ID No. 3 per body. […] Then, after removal of the supernatant from the wells, stained spots on the ELISPOT plate were counted.

Test [3] has as its system HLA-A*02:01 transgenic mouse. The test is described as follows: Test 17: in vivo adjuvant activity, liposome formulation 2, IFNγ ELISPOT. Particulars: added to cocktail vaccine 1 (liposome formulation 2); 0.4 nmol per body, twice; FIG. 20 and 21. As to the method:
as §1
The in vivo adjuvant activity of the compound of Example 1 was evaluated in the following procedure.
To a vaccine (liposome formulation 2) comprising Compound of formula 4 prepared in Reference example 8 and Peptide SEQ ID No. 3 prepared in Reference example 3 (hereinafter, referred to as “cocktail vaccine 1”) was added the compound prepared in Example 1 to prepare a vaccine. The vaccine was administered to a HLA-A*02:01 transgenic mouse, and the adjuvant activity of the vaccine was evaluated by the method of testing antigen-specific CTL induction.
For example, the above liposome formulation 2 was prepared as follows. 42.66 mg of sphingomyelin and 15.47 mg of cholesterol were dissolved in t-butyl alcohol, and the mixture was lyophilized. […]
Cocktail vaccine 1 was injected to mice intradermally at the tail base area in an amount for administering 500 μg of Compound of formula 4 per body and 375 μg of Peptide SEQ ID No. 3 per body. […] Then, after removal of the supernatant from the wells, stained spots on the ELISPOT plate were counted.

Turning to `CCCCCNc1nc(N)nc(C)c1Cc1ccc(CN(C)CCOCCOCCOCCOCCO)cc1OC` [Example 1, 1-(4-{[2-amino-4-methyl-6-(pentylamino)pyrimidin-5-yl]methyl}-3-methoxyphenyl)-2-methyl-5,8,11,14-tetraoxa-2-azahexadecan-16-ol·trifluoroacetate], in test [1], the “growth of tumor cells (average tumor volume)” value is reported as “more potently suppressed the growth of tumor cells”. The “CTL counts responsive to Peptide SEQ ID No. 1 or SEQ ID No. 4 compared with adding no compound” value in test [2] and in test [3] was “more” each time.
